Results as given in publication PMC4861903, “Synthesis of a highly water-soluble acacetin prodrug for treating experimental atrial fibrillation in beagle dogs” (Scientific Reports, 2016).
Like-named read-outs stand apart in the source and are kept apart here.

Key:
[1] = Aqueous solubility by HPLC in H2O, 5% glucose and 0.9% NaCl; type: physicochemical; conditions: for solubility: 24 °C, room temperature (23–25 °C), n = 3, read-out: maximum solubility
[2] = Ex vivo bioconversion of acacetin prodrug in rat plasma; type: in vitro ADME; conditions: 37 °C, n = 3
Procedure: The ex vivo bioconversion of acacetin prodrug was determined in rat plasma or rat hepatic microsome that contains high content alkaline phosphatase, as described previously[30] and in Supplemental Materials. The in vivo bioconversion of acacetin prodrug was determined in beagle dogs as described in Supplemental Materials. […]
Bioconversion of acacetin prodrug in rat plasma and hepatic microsomes
Hydrolysis of acacetin prodrug was initially determined in rat plasma. The 100 µL rat plasma samples containing 5 µg/mL prodrug was prepared at 4 °C and then incubated in a water bath at 37 °C and continuously shaken at 60 rpm. The plasma samples were collected at 0, 5, 15, 30, 60, 120, 180, 240 and 360 min, respectively. The reaction was terminated by adding 1 mL cold methanol containing the IS solution (50 ng/mL pentamethylquercetin). […]
The reaction mixture […]
was prepared in 50 mM Tris-HCl buffer (pH = 7.4) with 1 mM NADPH (nicotinamide adenine dinucleotide phosphate) and 0.5 mg/mL (total protein) microsomes. Prodrug solutions were added to the microsomes reaction mixture with a final concentration of 5 µg/mL. The reaction solution was incubated in a water bath at 37℃ and shaken at 60 rpm for 1 h. The samples were collected at 0, 1, 2, 15, 30 and 60 min. […] After centrifugation at 12000 g for 30 min, the supernatant was immediately analyzed by HPLC. […]

[3] = test system: experimental AF induced by vagal nerve stimulation and burst atrial pacing; experiment: Vagal nerve stimulation-induced AF in beagle dogs; type: in vivo; conditions: for AF duration in animals with effective AF termination: vehicle 30 min
Procedure: The anti-AF effect of acacetin prodrug was investigated in AF model (with AF duration of 30 min), which was established in beagle dogs with modified procedure as described previously. After three-repeats of stable AF (30 min), drug treatment was applied on 4th repeat (Fig. 5A). Acacetin prodrug dissolved in 5% glucose was administrated intravenously after 1 min of onset of AF induction. A bolus of one third dosage was infused within 2 min, then two third of the dosage (3, 6, and 12 mg/kg) was continuously infused for 18 min. The AF disappeared within 30 min before stopping bilateral vagal nerve stimulation was considered to be effective termination of AF (Fig. 5B). Blood samples were collected at different time points (5, 10, 20, 30, 45 and 60 min) during the experiment to determine the plasma acacetin concentrations. Figure 5C illustrates the termination rate of AF by different doses of acacetin prodrug. […] In addition, AF induction was repeated at 40 min after discontinuous prodrug infusion. AF was terminated at 25.3 ±1.8 min after re-induction (P < 0.01 vs. vehicle) in these animals (n = 15) with drug treatment, but not in animals treated with 5% glucose vehicle (30 min duration). However, the duration of AF was longer than during the initial drug administration (25.3 ± 1.8 min vs.17.1 ± 1.3 min, P < 0.01).
Experimental AF was induced by vagal nerve stimulation in beagle dogs with modified procedure as described previously. Briefly, AF was generated by a 10-s burst atrial pacing with a 4-fold diastolic threshold potential (60-ms interval) after 30 s vagal nerve stimulation. If AF persisted for 30 min, it was terminated by stopping vagal nerve stimulation. The stable AF lasting for 30 min was repeated for three times (20 min interval), drug test (vehicle or different doses of acacetin prodrug) was then performed. A shortened duration of AF during the continuous vagal nerve stimulation was considered to be effective termination of AF for drug treatment. […]
China) were anesthetized with pentobarbital (40 mg/kg, i.v.), supplemented as necessary during the experiment. The animal was kept on an operation table maintained at 37°C, intubated and ventilated with room air. The left femoral vein was cannulated to maintain fluid balance, anesthesia, and test articles. Lead II electrocardiogram (ECG) was continuously monitored with using a digital recording system (RM6240, Chengdu Instruments, China)
An action potential (MAP) recording- and pacing-catheter (Boston Scientific Ltd) was introduced to the right atrium through right jugular vein, and an electrical pacing catheter was introduced to left ventricle via […] for ventricular pacing (when necessary).
Bilateral cervical vagal nerves were isolated and bipolar electrodes were placed to stimulate efferent vagal nerves with 15 Hz, 0.2 ms duration voltage step (80-100% threshold) to induce a 50% reduction of heart rate. Ventricular pacing was performed with 2-ms voltage pulses (2.5 Hz, 150% diastolic threshold) when vagal nerves were continuously stimulated. Experimental atrial fibrillation (AF) model is established in beagle dogs with modified procedure as described previously.8-10 Briefly, AF was generated by a 10-s burst atrial pacing with a 4-fold diastolic threshold potential (60 ms interval) after 30 s vagal nerves stimulation. If AF persisted for 30 min, AF was terminated by stopping vagal nerve stimulation. After stable persistent AF lasing for 30 min was repeated for three times (20 min interval), drug test (vehicle or different doses of phosphate sodium salt prodrug of acacetin) was performed. A shortened AF duration during the continuous vagal stimulation was considered to be effective termination of AF. All the biological signals were recorded using the digital recording system (RM6240, Chengdu […]
Instruments, China). […]
Sixty ICR mice (male, 30; female, 30) were stratified […]

## COc1ccc(-c2cc(=O)c3c(O)cc(OP(=O)([O-])[O-])cc3o2)cc1.[Na+].[Na+] [acacetin prodrug, phosphate sodium salt of acacetin]
[1]; saline or isotonic, in 0.9% NaCl
  solubility: 88.6 ± 4.3 mg/mL
[1]; saline or isotonic, in 5% glucose
  solubility: 91.4 ± 2.7 mg/mL
[1]; water, in H2O
  solubility: 126 ± 2.5 mg/mL
[1]; in 5% glucose or 0.9% NaCl
  solubility higher compared to parent compound acacetin: more than forty five thousand folds higher
[1]; in H2O
  solubility higher compared to parent compound acacetin: more than 1.9 million folds
[2]; 60 min incubation
  prodrug converted into acacetin: 50%
[2]; within 240 min incubation
  prodrug converted into acacetin: 100%
[3]; 3 mg/kg i.v. (1/3 bolus in 2 min, 2/3 infused 18 min), 3 of 6 dogs, vehicle 0%
  termination rate of AF: 50%
[3]; 6 mg/kg i.v. (1/3 bolus in 2 min, 2/3 infused 18 min), 6 of 8 dogs, P < 0.05 vs. vehicle
  termination rate of AF: 75%
[3]; 6 mg/kg i.v.
  AF duration in animals with effective AF termination: 17.2 ± 2.3 min
[3]; 12 mg/kg i.v. (1/3 bolus in 2 min, 2/3 infused 18 min), 5 of 7 dogs, P < 0.05 vs. vehicle
  termination rate of AF: 71.4%
[3]; 12 mg/kg i.v.
  AF duration in animals with effective AF termination: 15.5 ± 2.7 min
[3]; AF induction repeated at 40 min after discontinuous prodrug infusion, all doses pooled, n = 15, P < 0.01 vs. vehicle (30 min)
  AF terminated at, after re-induction: 25.3 ± 1.8 min
[3]; all doses pooled, animals with drug treatment
  duration of AF during the initial drug administration: 17.1 ± 1.3 min
